According to US9234222B2, “Microbial strains producing sphingoid bases or derivatives thereof” (EVONIK DEGUSSA GMBH, priority 2004, dated 2016):
Bridge positions count the residues as written; N and C are the ends. Square brackets hold non-standard residues; d marks the D form. Peptide text beside a SMILES is read from it. * marks the point of attachment. Asp(3S-OH) = N[C@H](C(=O)O)[C@H](O)C(=O)O; Thr(4-Cl) = N[C@H](C(=O)O)[C@H](O)CCl; X1 = CCCCCCCCC[C@@H](O)CC(=O)*; dDab = NCC[C@@H](N)C(=O)O; Dab = NCC[C@H](N)C(=O)O; Dhb = C/C=C(\N)C(=O)O

Test system: Pichia ciferrii strains
Experiment: Minimal inhibitory concentration of SyringomycinE on YEPD agar plates
Format: cell-based
Settings: 10 μg/ml in YEPD selective plates
Description: In order to isolate high sphinganine producing Pichia ciferrii strains the following procedure was followed. First, the natural sensitivity of Pichia ciferrii strains for the toxic compound SyringomycinE, produced by […] syringae (Gross D C, 1985, Regulation of syringomycin synthesis in Pseudomonas syringae pv. syringae and defined conditions for its production. J Appl Bacteriol. 58:167-174), was determined by adding different concentrations of SyringomycinE to agar plates. A stock solution of 3.5 mg SyringomycinE (obtained from J. Takemoto, Utah State University) was prepared by dissolving it in 1.0 ml 0.001 N HCl. The pH was kept below 7 for stability and stored at −20° C. The minimal inhibitory concentration (=MIC-value) for Pichia ciferrii strains was determined by using YEPD plates (per liter: Yeast Extract, 10 g; Pepton, 20 g; Glucose, 20 g; Agar, 20 g) containing various concentrations between 0.1 and 20 μg/ml syringomycinE. On each plate with the different concentrations of syringomycinE 100 μl of a freshly grown culture (OD600 nm=0.4) was plated and incubated at 30° C. for 5 days.
Depending on the strain no colonies appeared on plates with 2 to 10 μg/ml of SyringomycinE, meaning that the MIC value lies between 2 and 10 μg/ml. […]

C/C=C1\NC(=O)[C@H](Cc2ccccc2)NC(=O)[C@H](CCCN=C(N)N)NC(=O)[C@@H](CCN)NC(=O)[C@H](CCN)NC(=O)[C@@H](CO)NC(=O)[C@@H](NC(=O)C[C@H](O)CCCCCCCCC)COC(=O)[C@H]([C@H](O)CCl)NC(=O)[C@H]([C@H](O)C(=O)O)NC1=O [SyringomycinE] (X1-S[dS][Dab][dDab]RF[Dhb][Asp(3S-OH)][Thr(4-Cl)]; ester 1-C)
effect on standard P. ciferrii strains: lethal
